Test results from patent US7678795B2, “Pyridazines as 11b-HSD1 inhibitors” (Hoffman-La Roche Inc., priority 2005, dated 2010).

Target: T1, human 11beta-HSD1 (Homo sapiens, UniProt P28845)
T1 construct: made in house; host or cells: HEK293 cells (ATCC CRL-1573), transient transfection; microsomal fraction
Experiment: Microsome assay (cortisone to cortisol conversion, ELISA-based cortisol detection)
Format: biochemical
Settings: microsomes from HEK293 cells transiently expressing human 11beta-HSD1; Cortisone 50-200 nM, NADPH 1 mM; 60 min at 37° C.; read-out: 11-beta-HSD 1 IC50
Method: Transient Expression and Partial Purification:
The cDNA encoding the human 11beta-HSD1 protein was cloned into the expression vector pcDNA3 ([…]). This construct (for details see Alex Odermatt et al.; J Biol. Chem.,1999, Vol. 274, Issue 40, 28762-28770) was used to transiently express the protein in HEK293 cells (ATCC number: CRL-1573, described in Graham, F. L., Smiley, J., Russell, W. C., Nairn, R.; (1977)) using lipofectamine. 48 h after transfection cells were washed twice with ice-cold PBS (Phosphate buffered Saline). To 1 volume of cell suspension in PBS 2 volumes of ice-cold lysis buffer (50 mM Tris; pH7.5; 1 mM EDTA; 100 mM NaCl) were added. The cells were lysed by Potter-homogenization (20 strokes). The resulting homogenate was sonicated wit a tip sonicator (10% output; 2×30 sec.) and cleared by a low speed centrifugation (10 min×9000 g; 4° C.). […]
Microsomes isolated from HEK293 cells transiently expressing human 11beta-HSD1 (for details see above) were incubated in assay buffer (100 mM NaCl; 1 mM EDTA; 1 mM EGTA; 1 mM MgCl; 250 mM Sucrose; 20 mM Tris pH 7.4; Cortisone 50-200 nM and NADPH 1 mM) together with different concentrations of test substances. […] The amount of Cortisol produced in this assay was determined using a commercially available, ELISA-based Cortisol-detection kit (Distributed by Assay Design, Inc.). […]

T1 sequence (P28845 whole entry): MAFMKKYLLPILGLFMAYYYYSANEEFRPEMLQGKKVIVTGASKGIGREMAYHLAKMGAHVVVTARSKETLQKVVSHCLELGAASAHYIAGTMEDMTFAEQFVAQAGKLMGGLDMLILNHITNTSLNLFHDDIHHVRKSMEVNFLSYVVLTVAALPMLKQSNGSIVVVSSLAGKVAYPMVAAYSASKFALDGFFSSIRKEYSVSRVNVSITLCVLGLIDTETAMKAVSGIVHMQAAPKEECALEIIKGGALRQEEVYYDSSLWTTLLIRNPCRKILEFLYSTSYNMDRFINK

| IC50 [nM] | SMILES |
| --- | --- |
| 30 | Cc1c(-c2cc3c(nn2)[C@@]2(C)CC[C@@H]3C2(C)C)cnn1-c1ccccc1 [Example 1, (1S,8R)-1,11,11-Trimethyl-5-(5-methyl-1-phenyl-1H-pyrazol-4-yl)-3,4-diaza-tricyclo[6.2.1.0^2,7]undeca-2(7),3,5-triene] |
| 3 | FC(F)(F)c1ccccc1-c1cc2c(nn1)CCCCCC2 [Example 41, 3-(2-Trifluoromethyl-phenyl)-5,6,7,8,9,10-hexahydro-cycloocta[c]pyridazine] |
